# Source: patent US20250312352A1, “GLP-1R MODULATING COMPOUNDS” (Gilead Sciences, Inc., priority 2021, published 2025)
# pEC50: −log10 of the molar value.
# Molecular target: T1, GLP-1R (Homo sapiens, UniProt P43220)
# T1 construct: host or cells: CHO cells
# Assay: GLP-1R activation cAMP assay (Assay 1 or Assay 2)
# Format: cell-based
# Details: cAMP increase in CHO cells stably expressing GLP-1R; compounds run on one of the two cAMP assays
# Method: GLP-1R ACTIVATION—cAMP Assay 1
# GLP-1R activation by compounds of the present disclosure was quantified by measuring cAMP increase in CHO cells stably expressing GLP-1R (MultiSpan product #C1267-1a). The cells were harvested and plated in growth medium (DMEM/F-12 (Corning product #10-090-CV) supplemented with 10% FBS (HyClone product #SH30071-03), penicillin/streptomycin (Corning product #30-002CI) and 10 μg/ml puromycin (Gibco product #A11138-03)) at 1,000 cells/well in a 384-well plate (Greiner product #781080). The cells were then incubated overnight at 37° C., 5% CO2. The next day, the medium was removed and the cells were washed with DPBS (Corning product #21-031-CM) before adding the assay medium (HBSS, Corning product #21-023-CV) with 20 mM Hepes (Gibco product #15630-080) and 0.1% BSA (Rockland Immunochemicals product #BSA-1000)). Following the medium change, the cells were incubated for 1 hour at 37° C., 5% CO2. The tested GLP-1 compound was added to the cells in a 10-point dose response followed by a 30-minute incubation at 37° C., 5% CO2. cAMP concentration increase was then detected using Cisbio's cAMP Gs Dynamic Kit (product #62AM4PEC) according to the manufacturer's protocol. The response was plotted against the log of the agonist concentration and fitted to a sigmoidal equation to determine the EC50.
# GLP-1R ACTIVATION—cAMP Assay 2
# GLP-1R activation by small molecule agonists was quantified by measuring cAMP increase in CHO cells stably expressing GLP-1R (MultiSpan product #C1267-1a). 50 nL of agonists were pre-spotted in a 10-point dose response onto 384-well plate (Corning product #CL3826) using the Labcyte Echo System.
# T1 sequence (P43220 24-463): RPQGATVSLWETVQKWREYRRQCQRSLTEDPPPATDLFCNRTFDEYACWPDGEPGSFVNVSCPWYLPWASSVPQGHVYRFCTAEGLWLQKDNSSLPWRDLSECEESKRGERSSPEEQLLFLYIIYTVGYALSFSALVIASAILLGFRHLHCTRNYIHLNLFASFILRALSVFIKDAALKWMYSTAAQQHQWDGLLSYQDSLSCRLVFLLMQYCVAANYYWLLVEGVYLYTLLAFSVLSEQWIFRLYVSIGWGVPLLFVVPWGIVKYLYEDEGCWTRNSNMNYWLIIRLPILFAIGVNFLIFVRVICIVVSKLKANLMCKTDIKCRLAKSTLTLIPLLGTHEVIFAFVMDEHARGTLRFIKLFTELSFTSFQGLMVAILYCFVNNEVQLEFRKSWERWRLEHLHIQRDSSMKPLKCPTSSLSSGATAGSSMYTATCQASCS
row,SMILES,pEC50
1,"O=C(O)c1ccc2nc(Cc3cc(F)c(-c4cccc(OCc5ncc(Cl)s5)n4)cc3F)n(C[C@@H]3CCO3)c2c1 [Example 47, (S)-2-(4-(6-((5-chlorothiazol-2-yl)methoxy)pyridin-2-yl)-2,5-difluorobenzyl)-1-(oxetan-2-ylmethyl)-1H-benzo[d]imidazole-6-carboxylic acid]",10.05
2,"Cn1c(COc2cccc(-c3cc(F)c(Cc4nc5ccc(C(=O)O)cc5n4C[C@@H]4CCO4)cc3F)n2)nc2ccccc21 [Example 48, (S)-2-(2,5-difluoro-4-(6-((1-methyl-1H-benzo[d]imidazol-2-yl)methoxy)pyridin-2-yl)benzyl)-1-(oxetan-2-ylmethyl)-1H-benzo[d]imidazole-6-carboxylic acid]",8.63
3,"O=C(O)c1ccc2nc(Cc3cc(F)c(-c4cccc(OCc5nnc(Cl)s5)n4)cc3F)n(C[C@@H]3CCO3)c2c1 [Example 49, (S)-2-(4-(6-((5-chloro-1,3,4-thiadiazol-2-yl)methoxy)pyridin-2-yl)-2,5-difluorobenzyl)-1-(oxetan-2-ylmethyl)-1H-benzo[d]imidazole-6-carboxylic acid]",9.19
4,"O=C(O)c1ccc2nc(Cc3cc(F)c(-c4cccc(OCc5csc(Cl)n5)n4)cc3F)n(C[C@@H]3CCO3)c2c1 [Example 50, (S)-2-(4-(6-((2-chlorothiazol-4-yl)methoxy)pyridin-2-yl)-2,5-difluorobenzyl)-1-(oxetan-2-ylmethyl)-1H-benzo[d]imidazole-6-carboxylic acid]",9.17
5,"O=C(O)c1ccc2nc(Cc3cc(F)c(-c4cccc(OCc5cc(F)c(Br)s5)n4)cc3F)n(C[C@@H]3CCO3)c2c1 [Example 51, (S)-2-(4-(6-((5-bromo-4-fluorothiophen-2-yl)methoxy)pyridin-2-yl)-2,5-difluorobenzyl)-1-(oxetan-2-ylmethyl)-1H-benzo[d]imidazole-6-carboxylic acid]",9.68
6,"N#Cc1cc(F)c(COc2cccc(-c3cc(F)c(Cc4nc5ccc(C(=O)O)cc5n4C[C@@H]4CCO4)cc3F)n2)s1 [Example 52, (S)-2-(4-(6-((5-cyano-3-fluorothiophen-2-yl)methoxy)pyridin-2-yl)-2,5-difluorobenzyl)-1-(oxetan-2-ylmethyl)-1H-benzo[d]imidazole-6-carboxylic acid]",9.89
7,"O=C(O)c1ccc2nc(Cc3cc(F)c(-c4cccc(OCc5nc(C(F)(F)F)cs5)n4)cc3F)n(C[C@@H]3CCO3)c2c1 [Example 53, (S)-2-(2,5-difluoro-4-(6-((4-(trifluoromethyl)thiazol-2-yl)methoxy)pyridin-2-yl)benzyl)-1-(oxetan-2-ylmethyl)-1H-benzo[d]imidazole-6-carboxylic acid]",9.42
8,"O=C(O)c1ccc2nc(Cc3cc(F)c(-c4cccc(OCc5cc(C(F)(F)F)cs5)n4)cc3F)n(C[C@@H]3CCO3)c2c1 [Example 55, (S)-2-(2,5-difluoro-4-(6-((4-(trifluoromethyl)thiophen-2-yl)methoxy)pyridin-2-yl)benzyl)-1-(oxetan-2-ylmethyl)-1H-benzo[d]imidazole-6-carboxylic acid]",9.36
9,"O=C(O)c1ccc2nc(Cc3cc(F)c(-c4cccc(OCc5ncc(OCC(F)F)s5)n4)cc3F)n(C[C@@H]3CCO3)c2c1 [Example 56, (S)-2-(4-(6-((5-(2,2-difluoroethoxy)thiazol-2-yl)methoxy)pyridin-2-yl)-2,5-difluorobenzyl)-1-(oxetan-2-ylmethyl)-1H-benzo[d]imidazole-6-carboxylic acid]",8.14
10,"O=C(O)c1ccc2nc(Cc3cc(F)c(-c4cccc(OCc5ncc(OCC(F)(F)F)s5)n4)cc3F)n(C[C@@H]3CCO3)c2c1 [Example 57, (S)-2-(2,5-difluoro-4-(6-((5-(2,2,2-trifluoroethoxy)thiazol-2-yl)methoxy)pyridin-2-yl)benzyl)-1-(oxetan-2-ylmethyl)-1H-benzo[d]imidazole-6-carboxylic acid]",9.14
11,"O=C(O)c1ccc2nc(Cc3cc(F)c(-c4cccc(OCc5ncc(C(F)F)s5)n4)cc3F)n(C[C@@H]3CCO3)c2c1 [Example 58, (S)-2-(4-(6-((5-(difluoromethyl)thiazol-2-yl)methoxy)pyridin-2-yl)-2,5-difluorobenzyl)-1-(oxetan-2-ylmethyl)-1H-benzo[d]imidazole-6-carboxylic acid]",9.85
12,"O=C(O)c1ccc2nc(Cc3cc(F)c(-c4cccc(OCc5nncs5)n4)cc3F)n(C[C@@H]3CCO3)c2c1 [Example 59, (S)-2-(4-(6-((1,3,4-thiadiazol-2-yl)methoxy)pyridin-2-yl)-2,5-difluorobenzyl)-1-(oxetan-2-ylmethyl)-1H-benzo[d]imidazole-6-carboxylic acid]",8.62
13,"O=C(O)c1ccc2nc(Cc3cc(F)c(-c4cccc(OCc5cc(C(F)(F)F)no5)n4)cc3F)n(C[C@@H]3CCO3)c2c1 [Example 60, (S)-2-(2,5-difluoro-4-(6-((3-(trifluoromethyl)isoxazol-5-yl)methoxy)pyridin-2-yl)benzyl)-1-(oxetan-2-ylmethyl)-1H-benzo[d]imidazole-6-carboxylic acid]",8.84
14,"O=C(O)c1ccc2nc(Cc3cc(F)c(-c4cccc(OCc5ccc(C(F)(F)F)o5)n4)cc3F)n(C[C@@H]3CCO3)c2c1 [Example 61, (S)-2-(2,5-difluoro-4-(6-((5-(trifluoromethyl)furan-2-yl)methoxy)pyridin-2-yl)benzyl)-1-(oxetan-2-ylmethyl)-1H-benzo[d]imidazole-6-carboxylic acid]",9.02
15,"O=C(O)c1ccc2nc(Cc3cc(F)c(-c4cccc(OCc5ccn(-c6ccc(F)cc6)n5)n4)cc3F)n(C[C@@H]3CCO3)c2c1 [Example 62, (S)-2-(2,5-difluoro-4-(6-((1-(4-fluorophenyl)-1H-pyrazol-3-yl)methoxy)pyridin-2-yl)benzyl)-1-(oxetan-2-ylmethyl)-1H-benzo[d]imidazole-6-carboxylic acid]",8.70
16,"O=C(O)c1ccc2nc(Cc3cc(F)c(-c4cccc(OCc5ncc(C6CC6)o5)n4)cc3F)n(C[C@@H]3CCO3)c2c1 [Example 63, (S)-2-(4-(6-((5-cyclopropyloxazol-2-yl)methoxy)pyridin-2-yl)-2,5-difluorobenzyl)-1-(oxetan-2-ylmethyl)-1H-benzo[d]imidazole-6-carboxylic acid]",9.05
17,"O=C(O)c1ccc2nc(Cc3cc(F)c(-c4cccc(OCc5ccn(CC(F)F)n5)n4)cc3F)n(C[C@@H]3CCO3)c2c1 [Example 64, (S)-2-(4-(6-((1-(2,2-difluoroethyl)-1H-pyrazol-3-yl)methoxy)pyridin-2-yl)-2,5-difluorobenzyl)-1-(oxetan-2-ylmethyl)-1H-benzo[d]imidazole-6-carboxylic acid]",8.20
18,"O=C(O)c1ccc2nc(Cc3cc(F)c(-c4cccc(OCc5cc6n(n5)CCC6)n4)cc3F)n(C[C@@H]3CCO3)c2c1 [Example 65, (S)-2-(4-(6-((5,6-dihydro-4H-pyrrolo[1,2-b]pyrazol-2-yl)methoxy)pyridin-2-yl)-2,5-difluorobenzyl)-1-(oxetan-2-ylmethyl)-1H-benzo[d]imidazole-6-carboxylic acid]",9.72
19,"O=C(O)c1ccc2nc(Cc3cc(F)c(-c4cccc(OCc5ccn(CC(F)(F)F)n5)n4)cc3F)n(C[C@@H]3CCO3)c2c1 [Example 66, (S)-2-(2,5-difluoro-4-(6-((1-(2,2,2-trifluoroethyl)-1H-pyrazol-3-yl)methoxy)pyridin-2-yl)benzyl)-1-(oxetan-2-ylmethyl)-1H-benzo[d]imidazole-6-carboxylic acid]",8.18
20,"O=C(O)c1ccc2nc(Cc3cc(F)c(-c4cccc(OCc5nnc(C6CC6)o5)n4)cc3F)n(C[C@@H]3CCO3)c2c1 [Example 67, (S)-2-(4-(6-((5-cyclopropyl-1,3,4-oxadiazol-2-yl)methoxy)pyridin-2-yl)-2,5-difluorobenzyl)-1-(oxetan-2-ylmethyl)-1H-benzo[d]imidazole-6-carboxylic acid]",8.19
21,"COc1cc(COc2cccc(-c3cc(F)c(Cc4nc5ccc(C(=O)O)cc5n4C[C@@H]4CCO4)cc3F)n2)nn1C [Example 68, (S)-2-(2,5-difluoro-4-(6-((5-methoxy-1-methyl-1H-pyrazol-3-yl)methoxy)pyridin-2-yl)benzyl)-1-(oxetan-2-ylmethyl)-1H-benzo[d]imidazole-6-carboxylic acid]",8.27
22,"O=C(O)c1cc(F)c2nc(Cc3ccc(-c4cccc(OCc5cc6n(n5)CCC6)n4)c(F)c3)n(C[C@@H]3CCO3)c2c1 [Example 69, (S)-2-(4-(6-((5,6-dihydro-4H-pyrrolo[1,2-b]pyrazol-2-yl)methoxy)pyridin-2-yl)-3-fluorobenzyl)-4-fluoro-1-(oxetan-2-ylmethyl)-1H-benzo[d]imidazole-6-carboxylic acid]",8.59
23,"O=C(O)c1ccc2nc(Cc3cc(F)c(-c4cccc(OCc5cc6n(n5)CCCC6)n4)cc3F)n(C[C@@H]3CCO3)c2c1 [Example 70, (S)-2-(2,5-difluoro-4-(6-((4,5,6,7-tetrahydropyrazolo[1,5-a]pyridin-2-yl)methoxy)pyridin-2-yl)benzyl)-1-(oxetan-2-ylmethyl)-1H-benzo[d]imidazole-6-carboxylic acid]",8.71
